Where a name gives a salt, the structure may show the parent alone.
Experiments:
[1] = system: cucumber gray mold fungus (Botrytis cinerea); test: Cucumber gray mold control test (foliar spray on cucumber seedlings); details: in Cucumis sativus, 96 h, read-out: control value
[2] = system: wheat leaf rust fungus (Puccinia recondita); test: Wheat leaf rust control test (foliar spray on wheat seedlings); format: in vivo; details: 240 h, 125 ppm active ingredient, sprayed on wheat seedlings (variety Norin 61) before inoculation, 10 days, vs untreated
[3] = system: Apple scab fungus (Venturia inaequalis); test: Apple scab control test (foliar spray on apple seedlings); format: in vivo; details: 125 ppm active ingredient, sprayed on apple seedlings (variety Orin) before inoculation, vs untreated
Procedure: The dilution was sprayed to apple seedlings (variety “Orin”, 3 to 4 leaf stage) grown in clay pots. […] The control value was calculated by the following equation. [formula]

[4] = system: Tomato late blight fungus (Phytophthora infestans); test: whole plant or invertebrate; format: in vivo; details: foliar, 96 h, read-out: control value

SMILES | melting point | pest or weed control at 125 ppm [1] | pest or weed control at 125 ppm [2] | pest or weed control at 125 ppm [3] | pest or weed control at 125 ppm [4]
N=C(NCC#Cc1ccc(C(=N)N)cc1)NCC#Cc1ccc(C(=N)N)cc1 (as salt: hydrochloride) [compound 155] | 220 °C | – | – | – | –
N=C(NCCCOc1ccc(C(=N)N)c(F)c1)NCCCOc1ccc(C(=N)N)c(F)c1 (as salt: hydrochloride) [compound 82] | 181 to 185 °C | – | – | – | –
N=C(N)c1ccc(OCCCCCn2ccn(CCOc3ccc(C(=N)N)cc3)c2=N)cc1 (as salt: hydrochloride) [compound 93] | 183 to 187 °C | – | – | – | –
N/C(=N\O)c1ccc(OCCCn2ccn(CCCOc3ccc(/C(N)=N/O)cc3)c2=NC(=O)C(F)(F)F)cc1 [compound 55, N-[1,3-bis[3-[4-[N′-hydroxycarbamimidoyl]phenoxy]propyl]-1,3-dihydro-2H-imidazol-2-ylidene]-2,2,2-trifluoroacetamide] | 187 to 201 °C | – | – | – | –
N=C(NCCOCc1ccc(C(=N)N)cc1)NCCOCc1ccc(C(=N)N)cc1 (as salt: hydrochloride) [compound 226] | 262 to 267 °C | – | – | – | –
Cc1cc(C(=N)N)ccc1OCCCCNC(=N)NCCCCOc1ccc(C(=N)N)cc1C (as salt: hydrochloride) [compound 84] | 171 to 180 °C | – | – | – | –
N=C(N)c1ccc(OCCCn2ccn(CCCOc3ccc(C(=N)N)c(F)c3)c2=N)cc1F (as salt: hydrochloride) [compound 103] | 183 to 187 °C | – | – | – | –
N=C(N)NCCCCCCCn1ccn(CCCCOc2ccc(C(=N)N)cc2)c1=N [compound 52, 4-[4-[3-(7-guanidinoheptyl)-2-imino-imidazol-1-yl]butoxy]benzamidine] | – | ≥ 75% | ≥ 75% | ≥ 75% | ≥ 75%
N=C(N)NCCCCCCCCNC(=N)NCCOc1ccc(C2=NCC(N)CN2)cc1 (stereo not shown) [compound 285] | – | ≥ 75% | ≥ 75% | ≥ 75% | ≥ 75%
CN(CCCCCCCCNC(=N)N)C(=N)NCCCOc1ccc(C(=N)N)cc1 [compound 140] | – | ≥ 75% | ≥ 75% | ≥ 75% | ≥ 75%
CC1(C)CNC(c2ccc(OCCCCNC(=N)NCCCCCCCCNC(=N)N)cc2)=N1 [compound 256] | – | ≥ 75% | ≥ 75% | ≥ 75% | ≥ 75%
N=C(N)NCCCCCCCCNC(=N)NCCOc1ccc(C2=NCCCN2)cc1 [compound 240] | – | ≥ 75% | ≥ 75% | ≥ 75% | ≥ 75%
N=C(N)NCCCCCCCCCNC(=N)NCCOc1ccc(C(=N)N)cc1 [compound 234] | – | ≥ 75% | ≥ 75% | ≥ 75% | ≥ 75%
N=C(N)NCCCCCCCCNC(=N)NCCC#Cc1ccc(C(=N)N)cc1 [compound 153] | – | ≥ 75% | ≥ 75% | ≥ 75% | ≥ 75%
N=C(N)NCCCCCCCCNC(=N)NC/C=C/c1ccc(C(=N)N)cc1 [compound 167] | – | ≥ 75% | ≥ 75% | ≥ 75% | ≥ 75%
N=C(N)NCCCCCCCn1ccn(CCCOc2ccc(C(=N)N)cc2)c1=N [compound 25, 4-[3-[3-(7-guanidinoheptyl)-2-imino-imidazol-1-yl]propoxy]benzamidine] | – | ≥ 75% | ≥ 75% | ≥ 75% | ≥ 75%
N=C(N)NCCCCCCCCNC(=N)NCCCCCOc1ccc(C(=N)N)cc1 [compound 171] | – | ≥ 75% | ≥ 75% | ≥ 75% | ≥ 75%
CN(C)/C(=N\CCCOc1ccc(C(=N)N)cc1)NCCCOc1ccc(C(=N)N)cc1 [compound 130] | – | ≥ 75% | ≥ 75% | ≥ 75% | ≥ 75%
N=C(N)NCCCCCCCCNC(=N)NCCCCOc1ccc(C2=NCCCN2)cn1 [compound 275] | – | ≥ 75% | ≥ 75% | ≥ 75% | ≥ 75%
N=C(N)NCCCCCCCCNC(=N)NCCCCOc1ccc(C2=NCC(N)CN2)cc1 (stereo not shown) [compound 279] | – | ≥ 75% | ≥ 75% | ≥ 75% | ≥ 75%

SMILES | melting point | pest or weed control at 125 ppm [1] | pest or weed control at 125 ppm [2] | pest or weed control at 125 ppm [3] | pest or weed control at 125 ppm [4]
N=C(N)c1ccc(OCCCn2ccn(CCCSc3ccc(C(=N)N)cc3)c2=N)cc1 [compound 173] | – | ≥ 75% | ≥ 75% | ≥ 75% | ≥ 75%
N=C(N)NCCCCCCCNC(=N)NCCC=Cc1ccc(C(=N)N)cc1 [compound 163] | – | ≥ 75% | ≥ 75% | ≥ 75% | ≥ 75%
Cc1cn(CCCOc2ccc(C(=N)N)cc2)c(=N)n1CCCOc1ccc(C(=N)N)cc1 [compound 114] | – | ≥ 75% | ≥ 75% | ≥ 75% | ≥ 75%
N=C(N)NCCCCCCCCCNC(=N)NCCOc1ccc(C2=NCCCN2)cc1 [compound 242] | – | ≥ 75% | ≥ 75% | ≥ 75% | ≥ 75%
N=C(N)NCCCCCCCCNC(=N)NCC#Cc1ccc(C(=N)N)cc1 [compound 165] | – | ≥ 75% | ≥ 75% | ≥ 75% | ≥ 75%
N=C(N)NCCCCCCCCNC(=N)NCCCOCc1ccc(C2=NCCCN2)cc1 [compound 222] | – | ≥ 75% | ≥ 75% | ≥ 75% | ≥ 75%
N=C(N)NCCCCCCCNC(=N)NCCCOCc1ccc(C(=N)N)cc1 [compound 179] | – | ≥ 75% | ≥ 75% | ≥ 75% | ≥ 75%
N=C(N)NCCCCCCCCNC(=N)NCCc1ccc(C2=NCCCN2)cc1 [compound 266] | – | ≥ 75% | ≥ 75% | ≥ 75% | ≥ 75%
Cc1cn(CCCCOc2ccc(C(=N)N)cc2)c(=N)n1CCCCOc1ccc(C(=N)N)cc1 [compound 107] | – | ≥ 75% | ≥ 75% | ≥ 75% | ≥ 75%
CN=C(NCCCOc1ccc(C(=N)N)cc1)NCCCOc1ccc(C(=N)N)cc1 [compound 57, 4-[3-[[N-[3-(4-carbamimidoylphenoxy)propyl]-N′-methyl-carbamimidoyl]amino]propoxy]benzamidine] | – | ≥ 75% | ≥ 75% | ≥ 75% | ≥ 75%
N=C(N)NCCCCCCCCNC(=N)NCCCOc1ccc(C(=N)N)cc1 [compound 230] | – | ≥ 75% | ≥ 75% | ≥ 75% | ≥ 75%
N=C(N)NCCCCCCCCNC(=N)NCCCOc1ccc(C2=NCCCN2)cc1 [compound 192] | – | ≥ 75% | ≥ 75% | ≥ 75% | ≥ 75%
N=C(NCCCCOc1ccc(C(=N)N)cc1)NCCCCOc1ccc(C(=N)N)cn1 [compound 194] | – | ≥ 75% | ≥ 75% | ≥ 75% | ≥ 75%
N=C(N)c1ccc(OCCCn2ccn(CCCc3cc4cc(C(=N)N)ccc4o3)c2=N)cc1 [compound 126] | – | ≥ 75% | ≥ 75% | ≥ 75% | ≥ 75%
N=C(N)NCCCCCCCNC(=N)NCCOCc1ccc(C(=N)N)cc1 [compound 228] | – | ≥ 75% | ≥ 75% | ≥ 75% | ≥ 75%
N=C(N)NCCCCCCCCn1ccn(CCCOc2ccc(C3=NCCCN3)cc2)c1=N [compound 184] | – | ≥ 75% | ≥ 75% | ≥ 75% | ≥ 75%
N=C(N)NCCCCCCCCNC(=N)NCCOCc1ccc(C(=N)N)cc1 [compound 200] | – | ≥ 75% | ≥ 75% | ≥ 75% | ≥ 75%
N=C(N)NCCCCCCCCNC(=N)NCCOCc1ccc(C2=NCCCN2)cc1 [compound 220] | – | ≥ 75% | ≥ 75% | ≥ 75% | ≥ 75%
N=C(N)NCCCCCCCCNC(=N)NCCCCOc1ccc(C(=N)N)cc1 [compound 188] | – | ≥ 75% | ≥ 75% | ≥ 75% | ≥ 75%
N=C(N)NCCCCCCCCNC(=N)NCCCCOc1ccc(C(=N)N)cn1 [compound 61, 6-[4-[[N-(8-guanidinooctyl)carbamimidoyl]amino]butoxy]pyridine-3-carboxamidine] | – | ≥ 75% | ≥ 75% | ≥ 75% | ≥ 75%
